{
  "source": "paper PMC10202811",
  "about": "(Nature Medicine, 2023)",
  "test": "Real-time neurobehavioral monitoring of CNS effects",
  "type": "in vivo, human",
  "excerpt": "The Adaptive Behavior Assessment System 3rd edition (ABAS-3; Harrison & Oakland, 2015) parent-report and self-report forms were used for the assessment of adaptive skills for individuals across all ages. Internal consistency has been reported to be 0.96 or greater for the composite adaptive behavior scale and between 0.86 and 0.99 for the subscales. Construct, convergent and discriminant validity have also been established for this measure.\nThe Behavior Assessment System for Children 3rd edition (BASC-3; Reynolds & Kamphaus, 2015) is a questionnaire assessing behavioral, emotional and adaptive functioning across settings. For purposes of this study, the Parent Rating Scales (PRS) were administered for patients ages 2–5 years (Preschool form, PRS-P), 6–11 years (Child form, PRS-C) and 12–17 years (Adolescent form, PRS-A). The Self-Report of Personality (SRP) College Form was administered for adult patients ages 18–25 years. The reliability of the BASC-3 is strong, with internal consistency averaging above 0.80 for all the age-specific versions of this questionnaire, and average test–retest reliability is 0.86.\nThe Behavior Rating Inventory of Executive Function (BRIEF; Gioia et al. 2000) is a questionnaire designed to assess behavioral manifestations of executive functioning and includes multiple versions. Parents of participants aged 2–5 years completed the 63-item preschool version (BRIEF-P). Parents of participants aged 6–17 years completed the BRIEF parent form, which consists of 86 individual items from which eight clinical scales, two indices and one composite score are derived. Patients who were ≥18 years of age completed a 75-item self-report adult version (BRIEF-A). Scores are standardized by age and gender, and high internal consistency (0.73–0.98) and test–retest reliability (0.76–0.90) were observed. Construct, content, convergent and discriminant validity have been established.\nCogState Research Battery (version 7; Sands et al. 2017; Heitzer et al. 2018) is a flexible battery of computer-based tests developed to monitor domains of cognition typically affected by cancer treatment, such as attention, memory, executive function and processing speed. Three different versions were used, one for children 3–5 years of age, one for children 6–9 years of age and one for patients 10 years of age and older. Age-standardized z-scores were derived based on the CogState normative dataset finalized in September 2014 for adults and in February 2016 for pediatrics, with construct validity, criterion validity, cultural equivalence and limited practice effects established.\nOnly measures with established language translations were used. If measures were not available in a patient’s primary language, neurobehavioral toxicity assessment was based on the treating physician’s clinical determination using CTCAE version 4.0 grading criteria. All measures were individually administered by trained, qualified site personnel. Standardized scores were obtained for each instrument administered by comparing raw scores to normative samples provided by the test publishers. All evaluation results were reviewed, analyzed and interpreted centrally in real time by a pediatric neuropsychologist. Determination of clinically meaningful change in functioning (that is, significant decline) relative to baseline or previous screening exam was made at each retest interval. This was calculated using reliable change indices (RCIs) for individual tests or scales, which account for standard errors of measurement, to determine whether a statistically significant change in scores occurred between two timepoints. Meaningful change in performance was considered to occur when clinically significant decline (using 90% CI) was present in 50% of select administered measures. […]",
  "key": {"[1]": {"settings": "A1 (< 18 yrs), DL 5 (115 mg/m^2)"}, "[2]": {"settings": "B2 (< 18yrs), DL 5 (115 mg/m^2)"}, "[3]": {"settings": "patient with CNS DLT, A2 (≥ 18 yrs), 100 mg"}, "[4]": {"settings": "patient with CNS DLT, B2 (< 18yrs), DL 5 (115 mg/m^2)"}, "[5]": {"settings": "patients with CNS DLT, A2 (≥ 18 yrs), 150 mg"}},
  "note": "Entries after “also recorded” stand apart in the source; their conditions may differ.",
  "data": [
    {"smiles": "C[C@H]1Oc2cc(cnc2N)-c2c(nn(C)c2C#N)CN(C)C(=O)c2ccc(F)cc21", "note": "[Lorlatinib, (10R)-7-amino-12-fluoro-2,10,16-trimethyl-15-oxo-10,15,16,17-tetrahydro-2H-8,4-(metheno)pyrazolo[4,3-h][2,5,11]-benzoxadiazacyclotetradecine-3-carbonitrile]", "values": [
      {"measurement": "DLT Corresponding Neuropsych Symptoms, Cognitive", "setting": "[1]", "value": "Stable"},
      {"measurement": "DLT Corresponding Neuropsych Symptoms, Psychosocial", "setting": "[1]", "value": "Adaptive Skills Depression"},
      {"measurement": "DLT Corresponding Neuropsych Symptoms, Cognitive", "setting": "A2 (≥ 18 yrs), 100 mg", "value": "Speed/Efficiency Working Memory Immediate Recall"},
      {"measurement": "DLT Corresponding Neuropsych Symptoms, Psychosocial", "setting": "A2 (≥ 18 yrs), 100 mg", "value": "Adaptive Skills Attention Working Memory"},
      {"measurement": "DLT Corresponding Neuropsych Symptoms, Cognitive", "setting": "A2 (≥ 18 yrs), 150 mg", "value": "Stable"},
      {"measurement": "DLT Corresponding Neuropsych Symptoms, Psychosocial", "setting": "A2 (≥ 18 yrs), 150 mg", "value": "Anxiety Depression Emotional Lability Atypicality^c; also recorded: Adaptive Skills Depression Emotional Lability Working Memory"},
      {"measurement": "DLT Corresponding Neuropsych Symptoms, Cognitive", "setting": "[2]", "value": "Speed/ Efficiency Working Memory"},
      {"measurement": "DLT Corresponding Neuropsych Symptoms, Psychosocial", "setting": "[2]", "value": "Adaptive Skills Anxiety"},
      {"measurement": "Pre-Cycle Neuropsych Symptoms, Psychosocial", "setting": "patient with CNS DLT, A1 (< 18 yrs), DL 5 (115 mg/m^2)", "value": "Atypicality Adaptive Skills"},
      {"measurement": "Pre-Cycle Neuropsych Symptoms, Cognitive", "setting": "patient with CNS DLT, A1 (< 18 yrs), DL 5 (115 mg/m^2), decline from baseline", "value": "Stable"},
      {"measurement": "Pre-Cycle Neuropsych Symptoms, Cognitive", "setting": "[3]", "value": "Speed/ Efficiency Working Memory"},
      {"measurement": "Pre-Cycle Neuropsych Symptoms, Psychosocial", "setting": "[3]", "value": "Adaptive Skills Attention"},
      {"measurement": "Pre-Cycle Neuropsych Symptoms, Cognitive", "setting": "[4]", "value": "Speed/ Efficiency"},
      {"measurement": "Pre-Cycle Neuropsych Symptoms, Psychosocial", "setting": "[4]", "value": "Atypicality Anxiety"},
      {"measurement": "Pre-Cycle Neuropsych Symptoms, Cognitive", "setting": "[5]", "value": "Stable; also recorded: Visual Memory"},
      {"measurement": "Pre-Cycle Neuropsych Symptoms, Psychosocial", "setting": "[5]", "value": "Adaptive Skills Anxiety Emotional Lability Working Memory Atypicality; also recorded: Depression Emotional Lability Working Memory"}
    ]}
  ]
}
